According to patent US11883526B2 (priority 2019, dated 2024):
Where two headings read alike, the source gives them in different places.

System: subjects with MDD at imminent risk for suicide
Details: 84 mg
[1] = TEAE leading to study discontinuation, double-blind phase, N = 35
[2] = TEAE, double-blind phase, N = 35

CN[C@]1(c2ccccc2Cl)CCCCC1=O [esketamine, (S)-2-(2-chlorophenyl)-2-(methylamino)cyclohexanone]
(37.1%): Nausea: % of subjects [2]
(20.0%): Eye disorders: % of subjects [2]
5: Withdrawn from double-blind phase: Adverse event, number of subjects (all randomized analysis set, N = 36) | Total no. subjects with TEAE leading to study discontinuation: no. of subjects [1] | Investigations: no. of subjects [2] | Skin and subcutaneous tissue disorders: no. of subjects [2]
5 subjects: subjects who discontinued the double-blind phase due to adverse events
14.3%: Total no. subjects with TEAE leading to study discontinuation: % of subjects [1]
(94.3%): Total no. subjects with TEAE: % of subjects [2]
(8.6%): Agitation: % of subjects [2] | Diarrhea: % of subjects [2] | Dry mouth: % of subjects [2] | Feeling abnormal: % of subjects [2] | Hypoesthesia: % of subjects [2] | Insomnia: % of subjects [2] | Nasal discomfort: % of subjects [2] | Throat irritation: % of subjects [2]
3: Agitation: no. of subjects [2] | Diarrhea: no. of subjects [2] | Dry mouth: no. of subjects [2] | Feeling abnormal: no. of subjects [2] | Hypoesthesia: no. of subjects [2] | Insomnia: no. of subjects [2] | Nasal discomfort: no. of subjects [2] | Throat irritation: no. of subjects [2]
(54.3%): Gastrointestinal disorders: % of subjects [2]
11: Dissociation: no. of subjects [2] | Dysgeusia: no. of subjects [2] | Headache: no. of subjects [2]
(2.9%): Flatulence: % of subjects [2] | Infections and infestations: % of subjects [2] | Nasal congestion: % of subjects [2] | Rash: % of subjects [2] | Renal and urinary disorders: % of subjects [2]
(17.1%): Anxiety: % of subjects [2] | Paresthesia: % of subjects [2] | Sedation: % of subjects [2]
2: Nervous system disorders: no. of subjects [1] | Psychiatric disorders: no. of subjects [1] | Acne: no. of subjects [2] | Blood pressure increased: no. of subjects [2] | Diplopia: no. of subjects [2] | Dizziness postural: no. of subjects [2] | Fatigue: no. of subjects [2] | Feeling cold: no. of subjects [2] | Hyperacusis: no. of subjects [2] | Hyperhidrosis: no. of subjects [2] | Hypoesthesia oral: no. of subjects [2] | Oropharyngeal pain: no. of subjects [2] | Paresthesia oral: no. of subjects [2] | Pharyngeal hypoesthesia: no. of subjects [2] | Suicidal ideation: no. of subjects [2] | Tinnitus: no. of subjects [2]
(5.7%): Acne: % of subjects [2] | Blood pressure increased: % of subjects [2] | Diplopia: % of subjects [2] | Dizziness postural: % of subjects [2] | Fatigue: % of subjects [2] | Feeling cold: % of subjects [2] | Hyperacusis: % of subjects [2] | Hyperhidrosis: % of subjects [2] | Hypoesthesia oral: % of subjects [2] | Oropharyngeal pain: % of subjects [2] | Paresthesia oral: % of subjects [2] | Pharyngeal hypoesthesia: % of subjects [2] | Suicidal ideation: % of subjects [2] | Tinnitus: % of subjects [2]
25: Nervous system disorders: no. of subjects [2]
(25.7%): Ear and labyrinth disorders: % of subjects [2] | Respiratory, thoracic and mediastinal disorders: % of subjects [2]
2.9%: Aggression: % of subjects [1] | Agitation: % of subjects [1] | Cardiac disorders: % of subjects [1] | Dizziness: % of subjects [1] | Dysgeusia: % of subjects [1] | Dyspnea: % of subjects [1] | Gastrointestinal disorders: % of subjects [1] | Nausea: % of subjects [1] | Respiratory, thoracic and mediastinal disorders: % of subjects [1] | Ventricular extrasystoles: % of subjects [1]
4: Euphoric mood: no. of subjects [2] | Somnolence: no. of subjects [2]
10: General disorders and administration site conditions: no. of subjects [2]
33: Total no. subjects with TEAE: no. of subjects [2]
20.0%: TEAE incidence: vomiting (double-blind phase)
94.3%: subjects with at least one TEAE (double-blind phase)
20: Psychiatric disorders: no. of subjects [2]
Four: subjects with a serious treatment-emergent adverse event (double-blind phase)
(31.4%): Dissociation: % of subjects [2] | Dysgeusia: % of subjects [2] | Headache: % of subjects [2]
48.1%: subjects with at least one adverse event (follow up phase)
5.7%: Nervous system disorders: % of subjects [1] | Psychiatric disorders: % of subjects [1]
37.1%: TEAE incidence: nausea (double-blind phase)
(14.3%): Investigations: % of subjects [2] | Skin and subcutaneous tissue disorders: % of subjects [2]
(57.1%): Psychiatric disorders: % of subjects [2]
1 subjects: subjects with a serious adverse event (follow up phase)
13: Nausea: no. of subjects [2]
12: Dizziness: no. of subjects [2]
34.3%: TEAE incidence: dizziness (double-blind phase)
(13.9%): Withdrawn from double-blind phase: Adverse event, percent of subjects (all randomized analysis set)
(34.3%): Dizziness: % of subjects [2]
0: Dissociative disorder: no. of subjects [1] | Panic attack: no. of subjects [1] | Abdominal pain: no. of subjects [2] | Blepharospasm: no. of subjects [2] | Constipation: no. of subjects [2] | Epistaxis: no. of subjects [2] | Intranasal paranesthesia: no. of subjects [2] | Panic attack: no. of subjects [2] | Pollakiuria: no. of subjects [2] | Rhinalgia: no. of subjects [2] | Rhinorrhoea: no. of subjects [2] | Toothache: no. of subjects [2] | Upper respiratory tract infection: no. of subjects [2]
31.4%: TEAE incidence: dissociation (double-blind phase) | TEAE incidence: dysgeusia (double-blind phase) | TEAE incidence: headache (double-blind phase)
(11.4%): Euphoric mood: % of subjects [2] | Somnolence: % of subjects [2] | Vertigo: % of subjects [2]
1: Aggression: no. of subjects [1] | Agitation: no. of subjects [1] | Cardiac disorders: no. of subjects [1] | Dizziness: no. of subjects [1] | Dysgeusia: no. of subjects [1] | Dyspnea: no. of subjects [1] | Gastrointestinal disorders: no. of subjects [1] | Nausea: no. of subjects [1] | Respiratory, thoracic and mediastinal disorders: no. of subjects [1] | Ventricular extrasystoles: no. of subjects [1] | Flatulence: no. of subjects [2] | Infections and infestations: no. of subjects [2] | Nasal congestion: no. of subjects [2] | Rash: no. of subjects [2] | Renal and urinary disorders: no. of subjects [2]
9: Ear and labyrinth disorders: no. of subjects [2] | Respiratory, thoracic and mediastinal disorders: no. of subjects [2]
7: Eye disorders: no. of subjects [2]
(28.6%): General disorders and administration site conditions: % of subjects [2]
(71.4%): Nervous system disorders: % of subjects [2]
6: Anxiety: no. of subjects [2] | Paresthesia: no. of subjects [2] | Sedation: no. of subjects [2]
19: Gastrointestinal disorders: no. of subjects [2]
